Test results: ChEMBL document CHEMBL1156648, “Tetrahdroxysqualene from Rhus taitensis shows antimycobacterial activity against Mycobacterium tuberculosis” (J Nat Prod, 2008)
Converted amounts (≈) assume the structure as drawn. The source made the active and inactive calls. The calls are words filed in the database; no cut-off is given here.

Assays:
[1] = tested on: Mycobacterium tuberculosis; assay: Antimycobacterial activity against Mycobacterium tuberculosis H37Ra after 4 days by MTT assay; format: functional; conditions: 96 h
[2] = Cytotoxicity against human CEM-TART cells after 72 hrs by MTT assay; format: cell-based
[3] = tested on: Mycobacterium tuberculosis; assay: Antimycobacterial activity against Mycobacterium tuberculosis H37Ra at 200 ug/ml after 4 days by MTT assay; format: functional, organism-based
[4] = tested on: Mycobacterium tuberculosis; assay: Antimycobacterial activity against Mycobacterium tuberculosis H37Rv at 100 ug/ml after 4 days by MTT assay; format: functional; conditions: 96 h, read-out: GI
[5] = tested on: Mycobacterium tuberculosis; assay: Antimycobacterial activity against Mycobacterium tuberculosis H37Rv by MTT assay after 4 days by MTT assay; format: functional; conditions: 96 h

| SMILES | MIC [1] [µg/mL] | EC50 [2] [µg/mL] | Activity [3] | inhibition of growth at 100 µg/mL [4] [%] | MIC [5] [µg/mL] |
| --- | --- | --- | --- | --- | --- |
| C/C(=C\CC/C(C)=C/CC/C=C(\C)CC/C=C(\C)CCC=C(CO)CO)CCC=C(CO)CO [TETRAHYDROXYSQUALENE] | 10 (≈ 21.1 µM) | 27.5 (≈ 57.9 µM) | – | – | – |
| CC(C)=CCC/C(C)=C/CC/C(C)=C/CC/C=C(\C)CC/C=C(\C)CCC=C(C)C [SQUALENE] | – | – | inactive | 99 | 100 (≈ 243 µM) |
| COc1cccc2c1C(=O)c1c(O)c3c(c(O)c1C2=O)C[C@@](O)(C(=O)CO)C[C@@H]3O[C@H]1C[C@H](N)[C@H](O)[C@H](C)O1 [DOXORUBICIN] | – | 0.0044 (≈ 0.0081 µM) | – | – | – |
| CO[C@H]1/C=C/O[C@@]2(C)Oc3c(C)c(O)c4c(O)c(c(/C=N/N5CCN(C)CC5)c(O)c4c3C2=O)NC(=O)/C(C)=C\C=C\[C@H](C)[C@H](O)[C@@H](C)[C@@H](O)[C@@H](C)[C@H](OC(C)=O)[C@@H]1C [RIFAMPIN] | 0.0025 (≈ 0.00304 µM) | – | – | – | 0.0025 (≈ 0.00304 µM) |
